Experimental data: patent publication US20250101338A1, “BIOMASS DERIVED SURFACE-ACTIVE COMPOSITIONS AND PRODUCTS” (Cambridge Glycoscience Ltd, priority 2021, published 2025)

Experiments:
Type in all cases: physicochemical
[1] = Water in oil emulsion stability test (Example 65); conditions: 0.5 mL water with 2 wt % substance + 1.5 mL sunflower oil, vortex 30 s, visual inspection
Description: 0.5 mL deionized water containing 2 wt % of the stated inventive or comparative compound was added to 1.5 mL commercial, food-grade sunflower oil, in a sample vial. The vials were each agitated with a IKA Vortex mixture for 30 seconds. The vials were left to stand and inspected visually for emulsion quality after 5 minutes, 1 hour, 4 hours and finally 24 h (FIG. 14 and FIG. 15). […] The results also show an unexpected increase in emulsifying performance for the inventive compositions comprising oligosaccharide mixture-derived surface-active agents (such as example 4-6 compositions) compared with those derived from a single monomeric sugar (xylose) alone (such as example 12 and 13 compositions).

[2] = Emulsion formation with different oil-water ratios (Example 66); conditions: water-oil ratio 1:2.5, groundnut oil, 3.0 wt % composition
Description: The ability of inventive surface-active compositions to stabilize emulsions in different mass-ratios of vegetable oil and water was investigated. Mixtures of water, vegetable oil and inventive surface-active composition were prepared as per table below, by adding groundnut oil, water, and surface-active composition in the desired mass ratio. The mixtures were heated at 60 C in a homogenizer (stirring for 10 minutes at 800 rpm, then further homogenized at this speed and ambient temperature for 5 min). The visual appearance of each mixture was acknowledged. The mixtures were then treated by centrifugation at 1500 rpm for 5 mi and the visual appearance was again acknowledged.

[3] = Flash foam generation test (Example 70); conditions: 20 mg in 4 mL deionized water (10 wt % [sic]), 2 mL shaken 30 s in 15 mL tube, duplicate average
Description: 20 mg of each surface-active composition for testing was dissolved in deionized water (4 mL) to give a 10 wt % solution, 2 mL was added to a 15 mL FALCON tube. Each falcon tube was secured in a holder before being vigorously shook for 30 seconds. The initial foam height and structure was noted. The foam height was then noted at 5 min, 10 min, 15 min, 30 min, 45 min, 1 hr and 2 hr after the initial measurement. The experiment was repeated in duplicate. Averaged results are depicted in table 5 and FIG. 11.

[4] = Aqueous hydrolytic stability by UPLC-MS (Example 73); conditions: 0.5 mg/mL
Description: Determination of aqueous stability of the test compounds was performed using UPLC-MS. A test compound 10 mg/mL stock solution was prepared by dissolving Example 11 composition (N-decyl-N-acetylxylosylamine) (inventive surface-active composition) in DMSO. Buffer solutions, comprised of simple, commercially-available acidic or basic substances in deionized water were prepared at pH 1, pH 3, pH 4, pH 5, pH 6, pH 7, pH 9, pH 11 and pH 13.

[5] = Relative viscosity, gravity flow time (Example 74); conditions: 10 mL of 10 wt % sodium dodecyl sulfate + 0.3 g NaCl + 0.655 mL of 30 wt % test solution, 27° C., triplicate
Description: The time taken for precisely 3 mL of testing mixture to pass out of the […] by gravity was recorded. The test was repeated in triplicate. Averaged results are depicted in FIG. 20 and table 9. It was unexpected that example 11 composition recorded such high viscosity over example 14 composition, which differs by a slightly smaller alkyl chain (octyl instead of decyl).

[6] = Critical micellular concentration determination (Example 78); conditions: deionized water
Description: Stock solutions were prepared of known weight concentration (range spanning 0.005 wt %-5.000 wt %) of inventive surface-active compositions (by solution of the appropriate weight of example composition in deionized water). For reference, the surface tension of deionized water in the absence of a surface-active composition is 73 mN. […] The surface tensions of the solutions at the concentration of the CMC were also noted. Results are shown in table 10 and graphical results are depicted in FIG. 22.

[7] = Aqueous solubility noted at preparation
Description: Solid N-decyl xylosylamine (7.6 g) was suspended in 2-propanol (60 mL) and triethylamine (2 equiv.) then acetic anhydride (1.6 equiv.) was added slowly. Stirring continued at ambient temperature for 10 h. Water (50 mL) was added, and the mixture stirred for 5 min. Dichloromethane (50 mL) was added and the phases separated. The aqueous phase was extracted with additional DCM. The combined organic phase washed with saturated aqueous NH4Cl solution, then the aqueous phase extracted with additional DCM. The combined organic phases were dried over anhydrous magnesium sulfate, filtered, then concentrated under reduced pressure to give a yellow oil. The oil was purified by FCC eluting with MeOH (2-15%) in DCM (120 g normal phase silica cartridge with wet loading). Fractions containing the product were combined and evaporated to dryness to give the desired product (4.1 g, 49%) as a yellow gum. LC-MS (Method A), Rt=1.69 min, [M+H]+=332.2. The gum product can be dissolved in water to form solutions of 50 wt % or greater.
The process was carried out in essentially the same manner as in Example 11 a) step (ii) but using the solid product of Example 11 reaction c) step (i) and the crude product was instead purified by FCC eluting with MeOH (2-13%) in DCM. There were obtained 1.4 g of cream gum product. LC-MS (Method A), Rt=1.87 min, [M+H]^+=360.5.

Time inspected by which the emulsion first appeared dispersed [1]: 24 h
Visual interpretation of results, after centrifugation ([2]; 1500 rpm 5 min): Complete phase-separation
Visual interpretation of results, before centrifugation ([2]; homogenized at 60 C): Emulsion failed to form.
Volume of foam after given time ([3]; 0 min): 8.3 cm^3
Volume of foam after given time ([3]; 5 min): 4.8 cm^3
Volume of foam after given time ([3]; 15 min): 2.5 cm^3
Volume of foam after given time ([3]; 30 min): 2.3 cm^3
Volume of foam after given time ([3]; 1 h): 2.0 cm^3
Volume of foam after given time ([3]; 2 h): 2.0 cm^3
Stability During 1-week (daily monitoring) (% of original concentration lost to degradation) ([4]; Buffer pH 1, 25° C.): (<50%)
Stability During 12-hour Assay (% of original concentration lost to degradation) ([4]; Buffer pH 1, 25° C.): (<1%) degradation
Stability During 1-week (daily monitoring) (% of original concentration lost to degradation) ([4]; Buffer pH 3, 25° C.): (<0.1%) degradation
Stability During 12-hour Assay (% of original concentration lost to degradation) ([4]; Buffer pH 3, 25° C.): (<0.1%) degradation
Stability During 1-week (daily monitoring) ([4]; Buffer pH 4, 25° C.): Full stability
Stability During 12-hour Assay ([4]; Buffer pH 4, 25° C.): Full stability
Stability During 1-week (daily monitoring) ([4]; Buffer pH 5, 25° C.): Full stability
Stability During 12-hour Assay ([4]; Buffer pH 5, 25° C.): Full stability
Stability During 1-week (daily monitoring) ([4]; Buffer pH 6, 25° C.): Full stability
Stability During 12-hour Assay ([4]; Buffer pH 6, 25° C.): Full stability
Stability During 1-week (daily monitoring) ([4]; Buffer pH 7, 25° C.): Full stability
Stability During 12-hour Assay ([4]; Buffer pH 7, 25° C.): Full stability
Stability During 1-week (daily monitoring) ([4]; Buffer pH 9, 25° C.): Full stability
Stability During 12-hour Assay ([4]; Buffer pH 9, 25° C.): Full stability
Stability During 1-week (daily monitoring) (% of original concentration lost to degradation) ([4]; Buffer pH 11, 25° C.): (<0.1%) degradation
Stability During 12-hour Assay (% of original concentration lost to degradation) ([4]; Buffer pH 11, 25° C.): (<0.1%) degradation
Stability During 1-week (daily monitoring) (% of original concentration lost to degradation) ([4]; Buffer pH 13, 25° C.): (<10%)
Stability During 12-hour Assay (% of original concentration lost to degradation) ([4]; Buffer pH 13, 25° C.): (<0.1%) degradation
Average time (for 3 mL to pass out of the stripette by gravity) [5]: 270.3 s
Solution Surface tension at CMC [6]: 36 mN
CMC ([6]; from surface tension at 0.005-5.000 wt %): 0.04 wt %
Concentration of solutions formed in water ([7]; gum product dissolved in water): ≥ 50 wt %
Aqueous solubility (in words) ([7]; water, room temperature): excellent aqueous solubility
SMILES: CCCCCCCCCCN(C(C)=O)C1OC[C@@H](O)[C@H](O)[C@H]1O (some centres unmarked) [Example 11 composition, N-decyl N-acetyl xylosylamine]
